Converted amounts (≈) assume the structure as drawn. Where two headings read alike, the source gives them in different places.
What was measured:
ATCC27853 = experiment: MIC determination, control strain; assay type: cell-based
Description: Determination methods of a Minimal Inhibitory Concentration (MIC) and a Minimum Bactericidal Concentration (MBC) of a test product: the MIC and the MBC of the Pithecellobium clypearia Benth water or ethanol extract to the MDRAB are determined by a microdilution broth method.

MDRPA [1] = experiment: Checkerboard assay (combined-use MIC, FIC); assay type: cell-based, Pseudomonas aeruginosa; conditions: for FIC, all strains / MIC50 of the antibiotic after combined use / MIC90 of the antibiotic after combined use / reduction of the antibiotic's MIC50 vs single use / reduction of the antibiotic's MIC90 vs single use / share of strains with FIC ≤ 0.5: 20 MDRPAs; for combined-use MIC: EA (P. clypearia water extract) combined with IMP
Procedure, shortened: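 Checkerboard combinations of S20b and antibiotic run per NCCLS method against ESBL E. coli, MDR A. baumannii and MDR P. aeruginosa.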

MDRPA [2] = experiment: MIC determination, microdilution broth method; conditions: 20 MDRPAs;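 also: broth microdilution per NCCLS recommendations, testing Pithecellobium clypearia water or ethanol extracts against multidrug-resistant Pseudomonas aeruginosa, with MIC50 and MIC90 derived statistically from individual MICs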
Description: Determination methods of a Minimal Inhibitory Concentration (MIC) and a Minimum Bactericidal Concentration (MBC) of a test product: the MIC and the MBC of the Pithecellobium clypearia Benth water or ethanol extract to the MDRAB are determined by a microdilution broth method. And it is operated by referring to the microdilution broth method recommended by National Committee for Clinical Laboratory Standards (NCCLS).
By determining the MIC and the MBC of the drug and making statistics of the data to obtain MIC50, MIC90, MBC50 and MBC90, the effect of the MDRA resistance of the drug is evaluated.
Test method: the MDRPA (serial No.: P1-P20) strains are tested and are evaluated with reference to the method in the first embodiment.

[3] = antibiotic with 10% ethanol extract
[4] = antibiotic with 60% ethanol extract
[5] = antibiotic with 95% ethanol extract
[6] = antibiotic with EA (water extract)

MIC (ATCC27853; EA=10% ethanol extract, read-out: MIC): 1 µg/mL (≈ 3.34 µM)
MIC (ATCC27853; EA=60% ethanol extract, read-out: MIC): 1 µg/mL (≈ 3.34 µM)
MIC (ATCC27853; EA=95% ethanol extract, read-out: MIC): 1 µg/mL (≈ 3.34 µM)
MIC (ATCC27853; EA=P. clypearia 10% ethanol extract, read-out: MIC (single use)): 4 µg/mL (≈ 13.4 µM)
MIC (ATCC27853; EA=P. clypearia water extract, read-out: MIC (single use)): 4 µg/mL (≈ 13.4 µM)
MIC (ATCC27853; EA=water extract, read-out: MIC): 1 µg/mL (≈ 3.34 µM)
MIC (ATCC27853; single use, EA = 60% ethanol extract, read-out: MIC): 4 µg/mL (≈ 13.4 µM)
MIC (ATCC27853; single use, EA = 95% ethanol extract, read-out: MIC): 4 µg/mL (≈ 13.4 µM)
MIC50 of the antibiotic after combined use (MDRPA [1]; [3]): 2 µg/mL
MIC90 of the antibiotic after combined use (MDRPA [1]; [3]): 16 µg/mL
reduction of the antibiotic's MIC50 vs single use (MDRPA [1]; [3]): 93.75%
reduction of the antibiotic's MIC90 vs single use (MDRPA [1]; [3]): 75%
MIC50 of the antibiotic after combined use (MDRPA [1]; [4]): 2 µg/mL
MIC90 of the antibiotic after combined use (MDRPA [1]; [4]): 16 µg/mL
reduction of the antibiotic's MIC50 vs single use (MDRPA [1]; [4]): 93.75%
reduction of the antibiotic's MIC90 vs single use (MDRPA [1]; [4]): 75%
MIC50 of the antibiotic after combined use (MDRPA [1]; [5]): 4 µg/mL
MIC90 of the antibiotic after combined use (MDRPA [1]; [5]): 16 µg/mL
reduction of the antibiotic's MIC50 vs single use (MDRPA [1]; [5]): 75%
reduction of the antibiotic's MIC90 vs single use (MDRPA [1]; [5]): 75%
MIC50 of the antibiotic after combined use (MDRPA [1]; [6]): 2 µg/mL
MIC90 of the antibiotic after combined use (MDRPA [1]; [6]): 16 µg/mL
reduction of the antibiotic's MIC50 vs single use (MDRPA [1]; [6]): 93.75%
reduction of the antibiotic's MIC90 vs single use (MDRPA [1]; [6]): 75%
combined-use MIC (MDRPA [1]; strain P1): 16 µg/mL
combined-use MIC (MDRPA [1]; strain P2): 2 µg/mL
combined-use MIC (MDRPA [1]; strain P3): 2 µg/mL
combined-use MIC (MDRPA [1]; strain P4): 2 µg/mL
combined-use MIC (MDRPA [1]; strain P5): 16 µg/mL
combined-use MIC (MDRPA [1]; strain P6): 2 µg/mL
combined-use MIC (MDRPA [1]; strain P7): 2 µg/mL
combined-use MIC (MDRPA [1]; strain P8): 2 µg/mL
combined-use MIC (MDRPA [1]; strain P9): 16 µg/mL
combined-use MIC (MDRPA [1]; strain P10): 16 µg/mL
combined-use MIC (MDRPA [1]; strain P11): 4 µg/mL
combined-use MIC (MDRPA [1]; strain P12): 2 µg/mL
combined-use MIC (MDRPA [1]; strain P13): 2 µg/mL
combined-use MIC (MDRPA [1]; strain P14): 4 µg/mL
combined-use MIC (MDRPA [1]; strain P15): 8 µg/mL
combined-use MIC (MDRPA [1]; strain P16): 2 µg/mL
combined-use MIC (MDRPA [1]; strain P17): 4 µg/mL
combined-use MIC (MDRPA [1]; strain P18): 4 µg/mL
combined-use MIC (MDRPA [1]; strain P19): 4 µg/mL
combined-use MIC (MDRPA [1]; strain P20): 2 µg/mL
MIC50 (MDRPA [2]; EA = 60% ethanol extract): 32 µg/mL (≈ 107 µM)
MIC90 (MDRPA [2]; EA = 60% ethanol extract): 64 µg/mL (≈ 214 µM)
MIC Range (MDRPA [2]; EA = 60% ethanol extract): 4 to 64 µg/mL
MIC50 (MDRPA [2]; EA = 95% ethanol extract): 32 µg/mL (≈ 107 µM)
Compound: C[C@@H](O)[C@H]1C(=O)N2C(C(=O)O)=C(SCCN=CN)C[C@H]12 [IMP, imipenem]
FIC, all strains (MDRPA [1]; [3]): ≤ 2
share of strains with FIC ≤ 0.5 (MDRPA [1]; [3]): 50%
FIC, all strains (MDRPA [1]; [4]): ≤ 2
share of strains with FIC ≤ 0.5 (MDRPA [1]; [4]): 15%
FIC, all strains (MDRPA [1]; [5]): ≤ 2
share of strains with FIC ≤ 0.5 (MDRPA [1]; [5]): 40%
FIC, all strains (MDRPA [1]; [6]): ≤ 2
share of strains with FIC ≤ 0.5 (MDRPA [1]; [6]): 40%

Source: patent US11793849B2, “Method of Chinese herbal medicine extract used for treating multiple diseases caused by drug resistant bacteria infection” (priority 2016, dated 2023)
